In patent publication US10167257B2, “Indole derivatives for use in medicine” (IOmet Pharma Ltd., priority 2014, dated 2019):

How the values were obtained:
[1] = target: T1, TDO (A172 cells) (Homo sapiens, UniProt P48775); test: TDO cell-based assay (A172), kynurenine production; details: A172 human glioblastoma cells, 500 μM L-Trp, 48 h, kynurenine by absorbance at 490 nm
T1 construct: This assay utilised cancer cells which expressed either TDO or IDO; host or cells: A172 human glioblastoma cells
T1 sequence (P48775 whole entry): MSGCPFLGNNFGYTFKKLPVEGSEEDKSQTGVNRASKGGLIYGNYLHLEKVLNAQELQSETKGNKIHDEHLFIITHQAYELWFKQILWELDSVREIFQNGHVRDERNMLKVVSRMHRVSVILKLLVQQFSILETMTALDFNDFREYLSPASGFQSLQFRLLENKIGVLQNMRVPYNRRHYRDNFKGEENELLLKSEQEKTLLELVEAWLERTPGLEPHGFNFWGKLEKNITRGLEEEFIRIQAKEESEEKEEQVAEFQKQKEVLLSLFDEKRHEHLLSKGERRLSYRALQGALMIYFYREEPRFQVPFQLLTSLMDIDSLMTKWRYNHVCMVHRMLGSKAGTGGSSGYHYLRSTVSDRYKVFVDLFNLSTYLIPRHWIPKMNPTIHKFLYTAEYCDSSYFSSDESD
Summary of the method: (§1)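 Kynurenine output was read at 490 nm after 5 min with 1% Ehrlich's reagent, using supernatants from 48 h, 37 °C cultures containing 500 μM L-Trp and test compound. TDO activity came from A172 cells. IDO activity came from SKOV-3 cells, whose expression was induced by adding 500 ng/ml IFNγ.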

[2] = target: T2, IDO (SKOV-3 cells) (Homo sapiens, UniProt P14902); test: IDO cell-based assay (SKOV-3, IFNγ-induced), kynurenine production; details: SKOV-3 ovary adenocarcinoma cells, IFNγ 500 ng/ml, 500 μM L-Trp, 48 h, kynurenine by absorbance at 490 nm
T2 construct: This assay utilised cancer cells which expressed either TDO or IDO; host or cells: SKOV-3 ovary adenocarcinoma cells, IFNγ-induced
T2 sequence (P14902 whole entry): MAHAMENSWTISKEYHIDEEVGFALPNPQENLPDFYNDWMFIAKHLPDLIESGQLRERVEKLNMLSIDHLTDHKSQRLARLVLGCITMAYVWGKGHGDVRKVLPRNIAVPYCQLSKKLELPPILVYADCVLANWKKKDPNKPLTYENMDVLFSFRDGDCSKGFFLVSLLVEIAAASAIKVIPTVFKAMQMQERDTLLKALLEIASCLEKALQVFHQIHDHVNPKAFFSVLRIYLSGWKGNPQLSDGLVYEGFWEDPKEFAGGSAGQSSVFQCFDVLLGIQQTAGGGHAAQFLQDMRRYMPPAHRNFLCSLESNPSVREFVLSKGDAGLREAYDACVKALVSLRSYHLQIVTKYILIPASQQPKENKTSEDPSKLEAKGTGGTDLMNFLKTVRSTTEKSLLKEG
Summary of the method: as §1

[3] = target: human IDO protein (Homo sapiens, UniProt P14902); test: IDO biochemical coupled assay (hIDO); details: 0.17 μM human IDO protein, biochemical coupled assay with formamidase
Chain of human IDO protein (P14902 whole entry): as above
Text: (§2) Two different types of assay were employed: 1. A TDO and IDO biochemical coupled assay which utilised recombinantly produced and purified TDO and IDO enzymes in combination with the enzyme formamidase. This coupled enzyme system allowed conversion of N-formylkynurenine produced by TDO or IDO activity to kynurenine which was then quantified by fluorescence following addition of Erhlich's Reagent. 2. A cell-based assay for detecting the effect of test compounds on kynurenine production in two different cancer cell types. This assay utilised cancer cells which expressed either TDO or IDO and as such was used as a means of testing compound activity at these two enzymes in a cell-based context. The protocols for these are set out below.
0.17 μM of human IDO protein was pre-incubated for 10 min or 120 min at RT with test compounds in the presence of 50 mM KPO4, pH 7.0, 0.5 mM EDTA, 0.5 mM EGTA, 0.05% Triton X-100, 20 mM ascorbate, 500 U/ml catalase, 10 μM methylene blue at RT in a 384 well plate. 0.05 μg/μl kynurenine formamidase and 45 μM or 121 μM L-tryptophan (L-Trp) were added and the assays were incubated at RT for 17 min. Assays were stopped and the level of kynurenine was determined by incubation with Ehrlich's reagent to a final concentration of 1.33% at RT for 5 min. Fluorescence intensity was read at 475 nm/530 nm.

[4] = target: human TDO protein (Homo sapiens, UniProt P48775); test: TDO biochemical coupled assay (hTDO); details: 2 μM human TDO protein, biochemical coupled assay with formamidase; read-out: pIC50 in the hTDO test (converted)
Chain of human TDO protein (P48775 whole entry): as the sequence (P48775 whole entry) above
Text: as §2
2 μM of human TDO protein was pre-incubated for 10 minutes at RT with test compounds in the presence of 50 mM KH2PO4, pH 7.0, 0.5 mM EDTA, 0.5 mM EGTA, 0.05% Triton X-100, 20 mM ascorbate, 500 U/ml catalase, 10 μM methylene blue at RT in a 384 well plate. 0.05 μg/μl kynurenine formamidase and 330 μM or 178 μM L-tryptophan were added and the assays were incubated at room temperature (RT) for 17 min. Assays were stopped and the level of kynurenine was determined by incubation with Ehrlich's reagent to a final concentration of 1.33% at RT for 5 min. Fluorescence intensity was read at 475 nm/530 nm.

SMILES	TDO cellular assay (A172) pIC50 [1]	IDO cellular assay (SKOV3) pIC50 [2]	other results
CC(NC(=O)c1cc2cc(Cl)ccc2[nH]1)c1ccc(C(=O)N(C)C)cc1 (centres unmarked) [Compound 83]	− (− = pIC50 <4.50)	+++ (+++ = pIC50 ≥5.50)	pIC50 in the hIDO assay [3]: 5.24
C[C@@H](NC(=O)c1cc2c([nH]1)CCCC2)c1ccccc1 [Compound 53]	− (− = pIC50 <4.50)	+ (+ = pIC50 4.50-<5.00)	–
COc1ccc(-n2cc(C(C)NC(=O)c3cc4cc(Cl)ccc4[nH]3)cn2)cc1 (centres unmarked) [Compound 146]	− (− = pIC50 <4.50)	+++ (+++ = pIC50 ≥5.50)	–
O=C(NCc1ccc(Cl)cc1)c1cc2cc(Cl)ccc2[nH]1 [Compound 34]	− (− = pIC50 <4.50)	+++ (+++ = pIC50 ≥5.50)	–
CC(NC(=O)c1cc2ccccc2[nH]1)c1ccccc1 (centres unmarked) [Compound 17]	+ (+ = pIC50 4.50-<5.00)	+++ (+++ = pIC50 ≥5.50)	–
C[C@H](NC(=O)c1cc2ccc(Cl)cc2[nH]1)c1ccccc1 [Compound 49]	+ (+ = pIC50 4.50-<5.00)	++ (++ = pIC50 5.00-<5.50)	–
O=C(NCc1ccncc1)c1cc2cc(Cl)ccc2[nH]1 [Compound 5]	− (− = pIC50 <4.50)	+ (+ = pIC50 4.50-<5.00)	–
CC(NC(=O)c1cc2cc(Cl)ccc2[nH]1)C1CCCCC1 (centres unmarked) [Compound 69]	++ (++ = pIC50 5.00-<5.50)	+++ (+++ = pIC50 ≥5.50)	–
C[C@H](NC(=O)c1nc2ccccc2o1)c1ccccc1 [Compound 76]	− (− = pIC50 <4.50)	+ (+ = pIC50 4.50-<5.00)	–
Cc1ncc(C(C)NC(=O)c2cc3cc(C#N)ccc3[nH]2)o1 (centres unmarked) [Compound 229]	+++ (+++ = pIC50 ≥5.50)	+++ (+++ = pIC50 ≥5.50)	–
C[C@H](NC(=O)c1cc2c([nH]1)CCCC2)c1ccccc1 [Compound 55]	+ (+ = pIC50 4.50-<5.00)	− (− = pIC50 <4.50)	–
CC(C)c1noc(C(C)NC(=O)c2cc3cc(Cl)ccc3[nH]2)n1 (centres unmarked) [Compound 126]	− (− = pIC50 <4.50)	+++ (+++ = pIC50 ≥5.50)	–
CC(NC(=O)c1cc2cc(Cl)ccc2[nH]1)c1cnn(-c2ccccc2)c1 (centres unmarked) [Compound 124]	− (− = pIC50 <4.50)	+++ (+++ = pIC50 ≥5.50)	–
O=C(Nc1cccnc1)c1cc2ccccc2[nH]1 [REF, reference compound]	–	–	IC50 ([1]; read-out: TDO cellular assay (A172) pIC50 (converted)): > 31.6 µM; IC50 [4]: > 102 µM; IC50 ([2]; read-out: IDO cellular assay (SKOV3) pIC50 (converted)): > 31.6 µM; IC50 ([3]; read-out: pIC50 in the hIDO assay (converted)): > 102 µM
COc1ccc2cc(C(=O)Nc3cccc4ccccc34)[nH]c2c1 [Compound 3]	− (− = pIC50 <4.50)	+++ (+++ = pIC50 ≥5.50)	–
Cn1cc(C2(NC(=O)c3cc4cc(OC(F)(F)F)ccc4[nH]3)CC2)cn1 [Compound 275]	− (− = pIC50 <4.50)	+++ (+++ = pIC50 ≥5.50)	–

SMILES	TDO cellular assay (A172) pIC50 [1]	IDO cellular assay (SKOV3) pIC50 [2]	other results
CC(NC(=O)c1cc2cc(C#N)ccc2[nH]1)c1ccccc1 (centres unmarked) [Compound 82]	+++ (+++ = pIC50 ≥5.50)	+++ (+++ = pIC50 ≥5.50)	–
N#Cc1ccc2[nH]c(C(=O)NC3(c4ccc(F)cc4)CC3)cc2c1 [Compound 137]	− (− = pIC50 <4.50)	+++ (+++ = pIC50 ≥5.50)	–
Cc1nccc2c(NC(=O)c3cc4cc(F)ccc4[nH]3)cccc12 [Compound 120]	− (− = pIC50 <4.50)	+++ (+++ = pIC50 ≥5.50)	–
Cc1c(C(=O)N[C@H](C)c2ccccc2)[nH]c2ccc(F)cc12 [Compound 38]	+ (+ = pIC50 4.50-<5.00)	++ (++ = pIC50 5.00-<5.50)	–
COc1ccc(CNC(=O)c2cc3cc(F)ccc3[nH]2)cc1 [Compound 29]	− (− = pIC50 <4.50)	+ (+ = pIC50 4.50-<5.00)	–
C[C@@H](NC(=O)c1nc2ccccc2o1)c1ccccc1 [Compound 73]	− (− = pIC50 <4.50)	+ (+ = pIC50 4.50-<5.00)	–
O=C(NC1(c2ccccc2)COC1)c1cc2cc(Cl)ccc2[nH]1 [Compound 142]	+ (+ = pIC50 4.50-<5.00)	+++ (+++ = pIC50 ≥5.50)	–
CC(NC(=O)c1cc2cc(Cl)ccc2[nH]1)c1cnoc1 (centres unmarked) [Compound 97]	+ (+ = pIC50 4.50-<5.00)	++ (++ = pIC50 5.00-<5.50)	–
N#Cc1ccc2[nH]c(C(=O)NC3(c4ccccc4)CCCC3)cc2c1 [Compound 231]	− (− = pIC50 <4.50)	+++ (+++ = pIC50 ≥5.50)	–
COc1ccc2[nH]c(C(=O)NC3(c4ccccc4)CC3)cc2c1 [Compound 182]	− (− = pIC50 <4.50)	+++ (+++ = pIC50 ≥5.50)	–
CC(NC(=O)c1cc2cccnc2[nH]1)c1ccccc1 (centres unmarked) [Compound 80]	− (− = pIC50 <4.50)	++ (++ = pIC50 5.00-<5.50)	–
CC(=O)N1CCC(C(C)NC(=O)c2cc3cc(Cl)ccc3[nH]2)CC1 (centres unmarked) [Compound 105]	− (− = pIC50 <4.50)	+++ (+++ = pIC50 ≥5.50)	–
O=C(NCc1ccc(F)cc1Cl)c1cc2ccccc2[nH]1 [Compound 31]	− (− = pIC50 <4.50)	+ (+ = pIC50 4.50-<5.00)	–
C[C@@H](c1ccccc1)N(C)C(=O)c1cc2cc(F)ccc2[nH]1 [Compound 59]	− (− = pIC50 <4.50)	+ (+ = pIC50 4.50-<5.00)	–
O=C(NC1(c2ccccc2)CC1)c1cc2cc(O)ccc2[nH]1 [Compound 187]	− (− = pIC50 <4.50)	+ (+ = pIC50 4.50-<5.00)	–
